According to patent US20210330611A1, “THERAPY FOR NEUROLOGICAL DISEASES/DISORDERS” (priority 2020, published 2021):
Where a name gives a salt, the structure may show the parent alone.

Experiments:
[1] = system: fibrin-induced microglia activation; test: Image-based assay of fibrin-induced microglia activation (HTS and dose response); assay type: cell-based, rat; settings: primary microglia HTS, fibrin stimulation, activation = cell size >800 μm2; for inhibition at 10 µM: Rattus norvegicus, Microglia, read-out: Fibrin % inhibition
[2] = system: LPS-induced microglia activation; test: Image-based assay of LPS-induced microglia activation (HTS and dose response); assay type: cell-based, rat; settings: primary microglia HTS, LPS stimulation, activation = cell size >800 μm2; for inhibition at 10 µM: Rattus norvegicus, Microglia, 48 h, read-out: LPS % inhibition
primary rat microglia [3] = test: Cell toxicity (dead cells, size <150 μm2) in coated fibrin (cFib) assay; settings: primary microglia HTS, fibrin stimulation, toxicity = cell size <150 μm2;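 further: share of dead cells sized under 150 µm2 at 10 µM in fibrin-stimulated microglia HTS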
[4] = system: fibrin- and LPS-induced microglia activation; test: cells; assay type: cell-based, rat; settings: quadrant by fibrin and LPS inhibition in HTS of 1907 compounds
primary rat microglia [5] = test: Cell toxicity (dead cells, size <150 μm2) in LPS assay; settings: primary microglia HTS, LPS stimulation, toxicity = cell size <150 μm2

| Structure (SMILES) | inhibition at 10 µM [1] | inhibition at 10 µM [2] | Fibrin % cell toxicity (primary rat microglia [3]) | Quadrant (FIG. 5b) [4] | LPS % cell toxicity (primary rat microglia [5]) | Fibrin % inhibition [1] | LPS % inhibition [2] |
| --- | --- | --- | --- | --- | --- | --- | --- |
| O=C(c1ccccc1)c1ccc2n1CCC2C(=O)O (stereo not shown) [Ketorolac] | 15% | 26% | 0% | Q4 | 0% | – | – |
| CN1CCC(=C2c3ccccc3CC(=O)c3sccc32)CC1 [Ketotifen] | 1% | 15% | 1% | Q4 | 0% | – | – |
| COc1c2occc2c(OC)c2c(=O)cc(C)oc12 [Khellin] | -16% | 5% | 0% | Q4 | 0% | – | – |
| CC[C@H](C)[C@H](N)C(=O)O [L-Isoleucine] | -35% | 17% | 0% | Q4 | 0% | – | – |
| C[C@](N)(Cc1ccc(O)c(O)c1)C(=O)O [L-alpha-methyl Dopa, Methyldopa] | – | – | 0% | Q4 | 0% | 4% | 15% |
| OC[C@@H](O)[C@@H](O[C@@H]1O[C@H](CO)[C@H](O)[C@H](O)[C@H]1O)[C@H](O)[C@@H](O)CO [Lacitol] | – | – | 1% | Q4 | 1% | −24% | 18% |
| Nc1nnc(-c2cccc(Cl)c2Cl)c(N)n1 [Lamotrigine] | -12% | 12% | 1% | Q4 | 0% | – | – |
| CC(=O)O[C@H]1C[C@H](O[C@H]2[C@@H](O)C[C@H](O[C@H]3[C@@H](O)C[C@H](O[C@H]4CC[C@@]5(C)[C@H](CC[C@@H]6[C@@H]5C[C@@H](O)[C@]5(C)[C@@H](C7=CC(=O)OC7)CC[C@]65O)C4)O[C@@H]3C)O[C@@H]2C)O[C@H](C)[C@H]1O[C@@H]1O[C@H](CO)[C@@H](O)[C@H](O)[C@H]1O [Lanatoside C] | – | – | 1% | Q4 | 1% | 17% | 35% |
| Cc1c(OCC(F)(F)F)ccnc1C[S+]([O-])c1nc2ccccc2[nH]1 (stereo not shown) [Lansoprazole] | 3% | 15% | 0% | Q4 | 0% | – | – |
| CO[C@@]1(NC(=O)C(C(=O)O)c2ccc(O)cc2)C(=O)N2C(C(=O)O)=C(CSc3nnnn3C)CO[C@@H]21 (stereo partly shown) [Latamoxef] | -18% | 22% | 1% | Q4 | 0% | – | – |
| CC(C)OC(=O)CCC/C=C\C[C@@H]1[C@@H](CC[C@@H](O)CCc2ccccc2)[C@H](O)C[C@@H]1O [Latanoprost] | 10% | 4% | 1% | Q4 | 0% | – | – |
| Cc1oncc1C(=O)Nc1ccc(C(F)(F)F)cc1 [Lefunamide, Leflunomide] | – | – | 0% | Q4 | 0% | −22% | 10% |
| Nc1nc2c(c(=O)[nH]1)N(C=O)C(CNc1ccc(C(=O)N[C@@H](CCC(=O)O)C(=O)O)cc1)CN2 (stereo partly shown) [Leucovorin] | -29% | 8% | 1% | Q4 | 0% | – | – |
| CCNC(=O)[C@@H]1CCCN1C(=O)[C@H](CCCNC(=N)N)NC(=O)[C@H](CC(C)C)NC(=O)[C@@H](CC(C)C)NC(=O)[C@H](Cc1ccc(O)cc1)NC(=O)[C@H](CO)NC(=O)[C@H](Cc1c[nH]c2ccccc12)NC(=O)[C@H](Cc1c[nH]cn1)NC(=O)[C@@H]1CCC(=O)N1 [Leuprolide] | – | – | 1% | Q4 | −1% | 5% | −3% |
| N[C@H]1CONC1=O [Levcycloserine] | 2% | 12% | 1% | Q4 | 0% | – | – |
| CC[C@@H](C(N)=O)N1CCCC1=O [Levetiracetam] | -24% | 7% | 1% | Q4 | 0% | – | – |
| CC(C)(C)NC[C@H](O)COc1cccc2c1CCCC2=O [Levobunolol Hydrochloride] | – | – | 0% | Q4 | 0% | −19% | 12% |
| CC(C)(C)NC[C@H](O)COc1cccc2c1CCCC2=O [Levobunolol] | – | – | 1% | Q4 | 0% | −28% | 30% |

| Structure (SMILES) | inhibition at 10 µM [1] | inhibition at 10 µM [2] | Fibrin % cell toxicity (primary rat microglia [3]) | Quadrant (FIG. 5b) [4] | LPS % cell toxicity (primary rat microglia [5]) | Fibrin % inhibition [1] | LPS % inhibition [2] |
| --- | --- | --- | --- | --- | --- | --- | --- |
| CCCCN1CCCC[C@H]1C(=O)Nc1c(C)cccc1C [Levobupivacaine] | 34% | -10% | 1% | Q4 | 0% | – | – |
| C[C@@H]1CN([C@H]2CC[C@](C#N)(c3ccc(F)cc3)CC2)CC[C@]1(C(=O)O)c1ccccc1 [Levocabastine] | 7% | 4% | 1% | Q4 | 0% | – | – |
| CCC(=O)O[C@H](CC(=O)O)C[N+](C)(C)C [Levocarnitine Propionate Hydrochloride] | -16% | 12% | 1% | Q4 | 1% | – | – |
| C[N+](C)(C)C[C@H](O)CC(=O)[O-] [Levocarnitine] | 8% | 15% | 1% | Q4 | 0% | – | – |
| C[C@H]1COc2c(N3CCN(C)CC3)c(F)cc3c(=O)c(C(=O)O)cn1c23 [Levofloxacin] | 12% | 31% | 1% | Q4 | 0% | – | – |
| C[C@@H]1CC(=O)NN=C1c1ccc(NN=C(C#N)C#N)cc1 [Levosimendan] | 46% | 42% | 1% | Q4 | 0% | – | – |
| CCN1CCC[C@H]1CNC(=O)c1cc(S(N)(=O)=O)ccc1OC [Levosulpiride] | -36% | 18% | 1% | Q4 | 0% | – | – |
| CC#CCn1c(N2CCC[C@@H](N)C2)nc2c1c(=O)n(Cc1nc(C)c3ccccc3n1)c(=O)n2C [Linagliptin] | 2% | 14% | 1% | Q4 | 1% | – | – |
| CCC[C@@H]1C[C@@H](C(=O)N[C@@H]([C@H]2O[C@H](SC)[C@H](O)[C@@H](O)[C@H]2O)[C@@H](C)O)N(C)C1 [Lincomycin Hydrochloride] | – | – | 1% | Q4 | 0% | −4% | 14% |
| CCC[C@@H]1C[C@@H](C(=O)N[C@@H]([C@H]2O[C@H](SC)[C@H](O)[C@@H](O)[C@H]2O)[C@@H](C)O)N(C)C1 [Lincomycin] | – | – | 1% | Q4 | 0% | −29% | −5% |
| NC(=O)CCCCC1CCSS1 (stereo not shown) [Lipoamide] | -18% | 8% | 0% | Q4 | 0% | – | – |
| CN1[C@@H](CC(=O)c2ccccc2)CCC[C@H]1C[C@H](O)c1ccccc1 [Lobeline] | -38% | -5% | 1% | Q4 | 0% | – | – |
| CCOC(=O)Nc1nc2ccccc2[nH]1 [Lobendazole] | -4% | 20% | 0% | Q4 | 0% | – | – |
| COc1ccc(CN2CCN(C(c3ccc(F)cc3)c3ccc(F)cc3)CC2)c(OC)c1OC [Lomerizine, Lomerizine Dihydrochloride] | – | – | 1% | Q4 | 0% | −5% | 8% |
| O=C(O)c1nn(Cc2ccc(Cl)cc2Cl)c2ccccc12 [Lonidamine] | 7% | 19% | 1% | Q4 | 0% | – | – |
| O=C1Nc2ccc(Cl)cc2C(c2ccccc2Cl)=NC1O (stereo not shown) [Lorazepam] | -13% | -1% | 1% | Q4 | 0% | – | – |
| CCCCCN(CCCCC)C(=O)C(CCC(=O)O)NC(=O)c1ccc(Cl)c(Cl)c1 (stereo not shown) [Lorglumide Sodium] | -29% | 13% | 1% | Q4 | 1% | – | – |
